The values that follow come from patent US20050112260A1, “Monatin tabletop sweetener compositions and methods of making same” (Cargill, Inc., priority 2003, published 2005).

Residues, ends and D or L forms follow the SMILES beside them.

Series [1] in a line: Sensory evaluation of table-top sweeteners in coffee and iced tea (panel n=6). In kind it is in vivo. As to conditions: 200 ml serving. As to the method:
Monatin table-top formulations, including R,R monatin or R,R monatin/erythritol combinations, were assessed relative to other known sweeteners (aspartame and sucralose) in coffee and iced tea. The key sensory parameters assessed included sweetness quality, aftertaste, bitter taste and its aftertaste. Qualitative evaluation has been carried out.
Standard coffee was used in which to evaluate sweetener performance (Table 7).
Sweeteners were added to coffee at the following concentrations: • Aspartame 0.025% (w/v) • Sucralose 0.0082% (w/v) • R,R monatin* 0.0020, 0.0025, 0.0030% (w/v) plus 1 g maltodextrin • R,R monatin/erythritol 0.0020, 0.0025, 0.0030% (w/v) plus 1 g erythritol (ii) Iced Tea
An ice tea formulation was developed to evaluate sweetener performance (Table 8).
Sweeteners were added to tea at the following concentrations:
The evaluation of these coffee and tea drinks was carried out by a small (n=6) panel of experienced sensory evaluators who evaluated the coffee products on one tasting occasion and the tea products on a subsequent occasion.

The nature of series [2]: Sensory stability of monatin and aspartame at pH 2.5, 3.0, 4.0 at 40° C. (sweetness vs sucrose standards, panel n=8). As to conditions: for Rate constant (k; day^−1) of sweetness loss: pseudo-first order assumed. The class given is physicochemical. As to the method:
The sensory stability of monatin solutions prepared at pH 2.5, 3.0 and 4.0 and stored at 40° C. was monitored for 100 days. Loss of sweetness from these solutions was compared with the losses of sweetness from aspartame solutions prepared and stored under identical conditions.
The sensory stability of monatin (8% SEV, ˜55 ppm, synthetic blend containing approximately 96% of the 2R,4R/2S, 4S enantiometric pair and 4% of the 2R,4S/2S,4R enantiometric pair) in phosphate/citrate buffers having a pH of 2.5, 3.0, and 4.0 was examined after storage at 40° C. The stability of monatin was compared to that of aspartame (400 ppm) in the same buffers. Three sucrose reference solutions were prepared in the same phosphate/citrate buffers as the monatin and aspartame solutions. All prepared solutions were stored in the dark.
• pH2.5 Phosphoric acid (75% solution) 0.127% (w/v) • Tri-sodium citrate monohydrate 0.005% (w/v) • pH3.0 Phosphoric acid (75% solution) 0.092% (w/v) • Tri-sodium citrate monohydrate 0.031% (w/v) • pH4.0 Phosphoric acid (75% solution) 0.071% (w/v) • Tri-sodium citrate monohydrate 0.047% (w/v)
The sweetness of each sweetener relative to sucrose was assessed in duplicate by a small panel (n=8) of trained sensory evaluators experienced in the sweetness estimation procedure. All samples (in the same buffers) were served in duplicate at a temperature of 22° C.±1° C. Monatin (test) solutions, coded with 3 digit random number codes were presented individually to panelists, in random order. Sucrose reference standards, ranging from 4.0-10.0% (w/v) sucrose, increasing in steps of 0.5% (w/v) sucrose were also provided. Panelists were asked to estimate sweetness by comparing the sweetness of the test solution to the sucrose standards. This was carried out by taking 3 sips of the test solution, followed by a sip of water, followed by 3 sips of sucrose standard followed by a sip of water, etc. Panelists were encouraged to estimate the sweetness to one decimal place, e.g., 6.8, 8.5. A five minute rest period was imposed between evaluating the test solutions. Panelists were also asked to rinse well and eat a cracker to reduce any potential carry over effects.
If a pseudo-first order breakdown reaction is assumed, a plot of logn percentage retention versus time (logn% RTN v. t) allows estimation of the half-life (t½) and rate constant (k) of sweetness loss under any given set of conditions. In so doing, the kinetics of monatin and aspartame sweetness loss may be summarized as follows in Table 13.

Series [3] is described as follows: Sweetness relative to sucrose, panel of trained sensory evaluators, dose response curve. The class given is in vivo. The settings on record: slope of dose response curve at 8% sucrose equivalence value (SEV). On the procedure: One assesses sweetness of a sweetener relative to sucrose by using a panel of trained sensory evaluators experienced in the sweetness estimation procedure. All samples (in same buffers) are served in duplicate at a temperature of 22° C.±1° C. Test solutions, coded with 3 digit random number codes, are presented individually to panelists, in random order. Sucrose reference standards, ranging from 4.0-10.0% (w/v) sucrose, increasing in steps of 0.5% (w/v) sucrose are also provided. Panelists are asked to estimate sweetness by comparing the sweetness of the test solution to the sucrose standards. […] Using information obtained from the panelists, the sweetness intensity or potency is calculated by dividing sucrose equivalent value (SEV) (e.g., % sucrose) by the % monatin at a particular point in a dose response curve.
The S,S stereoisomer of monatin is approximately 50-200 times sweeter than sucrose by weight. […] As discussed above, the sweetness of the monatin is calculated using experienced sensory evaluators in a sweetness comparison procedure, where a test sweetener solution is matched for sweetness intensity against one of a series of reference solutions. […] The intensity sweetness is calculated as the slope in a dose response curve, where the % sucrose is divided by the % monatin. […]

Setting [4] is: pH 2.5, 40° C., day 1, aspartame 400 ppm.
[5] abbreviates: pH 2.5, 40° C., day 2, aspartame 400 ppm.
Setting [6] is: pH 2.5, 40° C., day 3, aspartame 400 ppm.
Where [7] appears, read: pH 2.5, 40° C., day 4, aspartame 400 ppm.
The mark [8] stands for this setting: pH 2.5, 40° C., day 7, aspartame 400 ppm.
Setting [9] is: pH 2.5, 40° C., day 8, aspartame 400 ppm.
[10] abbreviates: pH 2.5, 40° C., day 9, aspartame 400 ppm.
Setting [11] is: pH 2.5, 40° C., day 11, aspartame 400 ppm.
Where [12] appears, read: pH 2.5, 40° C., day 50, aspartame 400 ppm.
The mark [13] stands for this setting: pH 2.5, 40° C., day 100, aspartame 400 ppm.
Setting [14] is: pH 3.0, 40° C., day 1, aspartame 400 ppm.
The mark [15] stands for this setting: pH 3.0, 40° C., day 2, aspartame 400 ppm.
Setting [16] is: pH 3.0, 40° C., day 3, aspartame 400 ppm.
Setting [17] is: pH 3.0, 40° C., day 4, aspartame 400 ppm.
Setting [18] is: pH 3.0, 40° C., day 7, aspartame 400 ppm.
Setting [19] is: pH 3.0, 40° C., day 8, aspartame 400 ppm.
Setting [20] is: pH 3.0, 40° C., day 9, aspartame 400 ppm.
Where [21] appears, read: pH 3.0, 40° C., day 11, aspartame 400 ppm.
[22] abbreviates: pH 3.0, 40° C., day 50, aspartame 400 ppm.
Setting [23] is: pH 3.0, 40° C., day 100, aspartame 400 ppm.
Setting [24] is: pH 4.0, 40° C., day 3, aspartame 400 ppm.
[25] abbreviates: pH 4.0, 40° C., day 8, aspartame 400 ppm.
Setting [26] is: pH 4.0, 40° C., day 11, aspartame 400 ppm.
[27] abbreviates: pH 4.0, 40° C., day 17, aspartame 400 ppm.
[28] abbreviates: pH 4.0, 40° C., day 24, aspartame 400 ppm.
Setting [29] is: pH 4.0, 40° C., day 50, aspartame 400 ppm.
The mark [30] stands for this setting: pH 4.0, 40° C., day 100, aspartame 400 ppm.

In the case of `OC[C@H]1O[C@H](O[C@]2(CCl)O[C@H](CCl)[C@@H](O)[C@@H]2O)[C@H](O)[C@@H](O)[C@H]1Cl` [Sucralose], the “Comments (sensory evaluation)” value in series [1] (Coffee, Sucralose 82 ppm) is recorded as “Slow sweetness onset allows stronger”; in series [1] (Iced Tea, Sucralose 170 ppm) it was “Delay in sweetness onset means first”.

Regarding `COC(=O)[C@H](Cc1ccccc1)NC(=O)[C@@H](N)CC(=O)O` [Aspartame, reference compound] (H-Asp-Phe-OMe), the “Comments (sensory evaluation)” value in series [1] (Coffee, Aspartame 250 ppm) is recorded as “Balanced sweetness profile. Very low level”. The “SEV Aspartame (% sucrose)” value in series [2] (pH 2.5, 40° C., day 0, aspartame 400 ppm) is 7.34 % sucrose; in series [2] (setting [4]), 6.90 % sucrose; in series [2] (setting [5]), 6.80 % sucrose; in series [2] (setting [6]), 6.60 % sucrose; in series [2] (setting [7]), 6.29 % sucrose; in series [2] (setting [8]), 6.01 % sucrose. The “SEV Aspartame (% sucrose)” value in series [2] (setting [9]) worked out at 5.98 % sucrose; in series [2] (setting [10]), 5.97 % sucrose; in series [2] (setting [11]), 5.86 % sucrose; in series [2] (setting [12]), 4.19 % sucrose; in series [2] (setting [13]), 0.80 % sucrose; in series [2] (pH 3.0, 40° C., day 0, aspartame 400 ppm) it was 7.15 % sucrose. Besides, the “SEV Aspartame (% sucrose)” value in series [2] (setting [14]) was determined as 6.90 % sucrose; in series [2] (setting [15]), 6.87 % sucrose; in series [2] (setting [16]), 6.60 % sucrose; in series [2] (setting [17]) it was 6.43 % sucrose; in series [2] (setting [18]), 6.17 % sucrose; in series [2] (setting [19]) it was 5.93 % sucrose. For the same compound, the “SEV Aspartame (% sucrose)” value in series [2] (setting [20]) turned out to be 5.94 % sucrose; in series [2] (setting [21]) it was 5.83 % sucrose; in series [2] (setting [22]), 4.71 % sucrose; in series [2] (setting [23]), 2.20 % sucrose; in series [2] (pH 4.0, 40° C., day 0, aspartame 400 ppm) it was 7.10 % sucrose; in series [2] (setting [24]), 6.75 % sucrose. Moreover, the “SEV Aspartame (% sucrose)” value in series [2] (setting [25]) was found to be 6.23 % sucrose; in series [2] (setting [26]), 6.02 % sucrose; in series [2] (setting [27]), 5.75 % sucrose; in series [2] (setting [28]), 5.85 % sucrose; in series [2] (setting [29]) it was 5.29 % sucrose; in series [2] (setting [30]), 4.10 % sucrose. Further, the “Retention of Aspartame Sweetness (%)” value in series [2] (setting [4]) is 94.0%; in series [2] (setting [5]) it was 92.6%; in series [2] (setting [6]), 89.9%; in series [2] (setting [7]) it was 85.7%; in series [2] (setting [8]) it was 81.9%; in series [2] (setting [9]), 81.5%. The “Retention of Aspartame Sweetness (%)” value amounted to 81.3% in series [2] (setting [10]); 79.8% in series [2] (setting [11]); 57.1% in series [2] (setting [12]); 10.9% in series [2] (setting [13]); 96.5% in series [2] (setting [14]); 96.1% in series [2] (setting [15]). Besides, the “Retention of Aspartame Sweetness (%)” value is listed as 92.3% in series [2] (setting [16]); 89.9% in series [2] (setting [17]); 86.3% in series [2] (setting [18]); 82.9% in series [2] (setting [19]); 83.1% in series [2] (setting [20]); 81.5% in series [2] (setting [21]). Further, the “Retention of Aspartame Sweetness (%)” value in series [2] (setting [22]) turned out to be 65.9%; in series [2] (setting [23]), 30.8%; in series [2] (setting [24]) it was 95.1%; in series [2] (setting [25]), 87.8%; in series [2] (setting [26]), 84.8%; in series [2] (setting [27]), 81.0%. Further, the “Retention of Aspartame Sweetness (%)” value is 82.4% in series [2] (setting [28]), 74.5% in series [2] (setting [29]) and 57.7% in series [2] (setting [30]). Further, the “Rate constant (k; day^−1) of sweetness loss” value in series [2] (pH 2.5, 40° C.) was determined as 0.013 day⁻¹; in series [2] (pH 3.0, 40° C.), 0.009 day⁻¹; in series [2] (pH 4.0, 40° C.) it was 0.005 day⁻¹. For the same compound, the “Sweetness Retained (%)” value was found to be 11% in series [2] (pH 2.5, 100 days storage at 40° C.); 31% in series [2] (pH 3.0, 100 days storage at 40° C.); 58% in series [2] (pH 4.0, 100 days storage at 40° C.).

Turning to `N[C@H](C[C@](O)(Cc1c[nH]c2ccccc12)C(=O)O)C(=O)O` [R,R monatin], the “sweetness compared to sucrose by weight” value in series [3] is on record as 2000-2400 times sweeter than sucrose by weight.

Regarding `NC(CC(O)(Cc1c[nH]c2ccccc12)C(=O)O)C(=O)O` (centres unmarked) [S,S monatin], the “sweetness compared to sucrose by weight” value in series [3] is on record as 50-200 times sweeter than sucrose by weight.
